Assay results from the kinase profiling compilation of Christmann-Franck et al. (2016).

Key:
Test in all cases: KINOMEscan competition binding
Conditions in all cases: compound 10.0 µM
ACVRL1 (human) = ACVRL1 (human) (UniProt P37023)
AKT3 (human) = AKT3 (human) (UniProt Q9Y243)
CDC42BPA (human) = CDC42BPA (human) (UniProt Q5VT25)
CDK3 (human) = CDK3 (human) (UniProt Q00526)
CHEK2 (human) = CHEK2 (human) (UniProt O96017)
CSNK1E (human) = CSNK1E (human) (UniProt P49674)
CaMK1 (human) = CaMK1 (human) (UniProt Q14012)
Chain of CaMK1 (human) (Q14012 whole entry, looked up): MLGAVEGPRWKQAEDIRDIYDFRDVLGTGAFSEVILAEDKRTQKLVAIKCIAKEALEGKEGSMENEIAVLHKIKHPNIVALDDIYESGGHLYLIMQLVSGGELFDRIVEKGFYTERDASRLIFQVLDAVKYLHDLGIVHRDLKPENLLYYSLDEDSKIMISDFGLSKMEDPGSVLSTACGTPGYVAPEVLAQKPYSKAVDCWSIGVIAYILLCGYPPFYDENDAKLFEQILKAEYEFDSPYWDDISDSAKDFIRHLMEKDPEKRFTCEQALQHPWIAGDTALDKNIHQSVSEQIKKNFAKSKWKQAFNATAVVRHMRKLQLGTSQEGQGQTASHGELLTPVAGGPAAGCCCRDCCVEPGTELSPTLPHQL

DAPK2 (human) = DAPK2 (human) (UniProt Q9UIK4)
DAPK3 (human) = DAPK3 (human) (UniProt O43293)
DYRK1B (human) = DYRK1B (human) (UniProt Q9Y463)
EPHA7 (human) = EPHA7 (human) (UniProt Q15375)
FYN (human) = FYN (human) (UniProt P06241)
GAK (human) = GAK (human) (UniProt O14976)
[1] = target: JAK2 JH1 catalytic (human) (UniProt O60674)
LATS2 (human) = LATS2 (human) (UniProt Q9NRM7)
MAP3K10 (human) = MAP3K10 (human) (UniProt Q02779)
Chain of MAP3K10 (human) (Q02779 whole entry, looked up): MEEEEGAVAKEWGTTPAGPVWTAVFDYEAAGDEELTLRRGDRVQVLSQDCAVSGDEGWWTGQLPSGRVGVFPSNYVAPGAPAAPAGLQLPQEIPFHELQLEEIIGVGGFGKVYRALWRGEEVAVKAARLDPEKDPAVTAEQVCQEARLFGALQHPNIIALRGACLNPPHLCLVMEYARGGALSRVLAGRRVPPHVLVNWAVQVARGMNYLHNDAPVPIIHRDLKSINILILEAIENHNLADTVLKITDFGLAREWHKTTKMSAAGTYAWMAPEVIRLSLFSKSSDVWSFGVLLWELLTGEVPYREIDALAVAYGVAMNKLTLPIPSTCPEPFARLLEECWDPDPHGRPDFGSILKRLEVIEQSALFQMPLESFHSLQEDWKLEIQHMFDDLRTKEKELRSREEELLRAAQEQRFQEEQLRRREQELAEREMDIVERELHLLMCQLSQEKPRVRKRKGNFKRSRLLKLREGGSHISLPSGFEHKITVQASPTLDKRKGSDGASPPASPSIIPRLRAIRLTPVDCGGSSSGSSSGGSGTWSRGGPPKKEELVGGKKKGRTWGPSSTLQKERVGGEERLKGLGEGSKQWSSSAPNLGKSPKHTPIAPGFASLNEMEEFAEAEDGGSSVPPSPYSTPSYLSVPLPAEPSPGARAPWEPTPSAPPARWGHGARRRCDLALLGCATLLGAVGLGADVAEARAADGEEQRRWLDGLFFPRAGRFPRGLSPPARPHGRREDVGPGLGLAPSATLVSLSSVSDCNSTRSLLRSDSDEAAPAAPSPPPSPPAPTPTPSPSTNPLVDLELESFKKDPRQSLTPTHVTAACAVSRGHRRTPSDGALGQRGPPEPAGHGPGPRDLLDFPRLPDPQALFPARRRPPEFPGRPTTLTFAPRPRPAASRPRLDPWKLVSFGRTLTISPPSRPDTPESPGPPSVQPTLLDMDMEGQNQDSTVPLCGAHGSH

MAPK3 (human) = MAPK3 (human) (UniProt P27361)
Chain of MAPK3 (human) (P27361 whole entry, looked up): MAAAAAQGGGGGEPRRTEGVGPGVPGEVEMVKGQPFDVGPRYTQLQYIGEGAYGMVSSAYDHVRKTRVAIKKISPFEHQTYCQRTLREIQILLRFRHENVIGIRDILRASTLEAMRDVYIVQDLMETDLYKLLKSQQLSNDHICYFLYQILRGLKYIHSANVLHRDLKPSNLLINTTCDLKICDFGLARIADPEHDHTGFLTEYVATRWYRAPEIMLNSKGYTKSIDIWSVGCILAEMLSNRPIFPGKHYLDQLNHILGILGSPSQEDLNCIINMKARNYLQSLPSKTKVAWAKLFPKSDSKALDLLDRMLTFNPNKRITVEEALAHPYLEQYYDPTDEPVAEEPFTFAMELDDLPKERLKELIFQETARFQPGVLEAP

MAPKAPK5 (human) = MAPKAPK5 (human) (UniProt Q8IW41)
MARK1 (human) = MARK1 (human) (UniProt Q9P0L2)
MELK (human) = MELK (human) (UniProt Q14680)
MKNK1 (human) = MKNK1 (human) (UniProt Q9BUB5)
MYLK (human) = MYLK (human) (UniProt Q15746)
MYO3B (human) = MYO3B (human) (UniProt Q8WXR4)
Chain of MYO3B (human) (Q8WXR4 whole entry, looked up): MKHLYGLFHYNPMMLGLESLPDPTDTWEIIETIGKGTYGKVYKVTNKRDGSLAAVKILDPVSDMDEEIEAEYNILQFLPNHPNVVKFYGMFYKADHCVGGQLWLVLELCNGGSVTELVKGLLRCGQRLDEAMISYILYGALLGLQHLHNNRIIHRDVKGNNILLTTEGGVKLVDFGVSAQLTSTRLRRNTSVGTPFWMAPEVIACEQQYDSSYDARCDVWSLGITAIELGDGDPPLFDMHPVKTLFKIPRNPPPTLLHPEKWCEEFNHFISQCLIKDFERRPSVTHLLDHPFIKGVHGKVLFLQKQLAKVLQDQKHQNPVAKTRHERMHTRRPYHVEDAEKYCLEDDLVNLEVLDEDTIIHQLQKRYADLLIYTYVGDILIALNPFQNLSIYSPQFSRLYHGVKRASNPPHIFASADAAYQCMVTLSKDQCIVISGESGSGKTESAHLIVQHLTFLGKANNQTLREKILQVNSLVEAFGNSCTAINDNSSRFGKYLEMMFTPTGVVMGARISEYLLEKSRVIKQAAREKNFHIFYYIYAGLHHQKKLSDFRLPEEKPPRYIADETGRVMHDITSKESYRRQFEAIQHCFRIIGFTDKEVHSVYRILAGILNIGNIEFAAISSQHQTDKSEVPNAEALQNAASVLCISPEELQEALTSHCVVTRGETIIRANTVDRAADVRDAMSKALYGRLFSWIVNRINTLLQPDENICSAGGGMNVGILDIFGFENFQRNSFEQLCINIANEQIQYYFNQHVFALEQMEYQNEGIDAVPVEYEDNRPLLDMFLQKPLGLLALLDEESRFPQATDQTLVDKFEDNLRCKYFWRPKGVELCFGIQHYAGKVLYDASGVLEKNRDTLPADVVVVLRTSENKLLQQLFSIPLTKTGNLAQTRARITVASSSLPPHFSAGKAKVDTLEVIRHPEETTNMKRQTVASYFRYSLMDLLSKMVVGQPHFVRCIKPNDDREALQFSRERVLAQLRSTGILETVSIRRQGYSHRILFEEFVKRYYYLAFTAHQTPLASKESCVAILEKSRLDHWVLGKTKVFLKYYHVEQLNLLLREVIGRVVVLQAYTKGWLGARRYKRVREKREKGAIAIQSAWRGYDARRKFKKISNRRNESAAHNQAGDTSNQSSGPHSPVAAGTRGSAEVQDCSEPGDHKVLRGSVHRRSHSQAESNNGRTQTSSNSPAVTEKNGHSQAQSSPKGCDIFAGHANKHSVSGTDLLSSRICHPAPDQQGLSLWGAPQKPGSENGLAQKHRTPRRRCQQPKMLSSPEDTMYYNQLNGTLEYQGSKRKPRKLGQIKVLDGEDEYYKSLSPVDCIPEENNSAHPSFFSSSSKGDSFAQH

NUAK1 (human) = NUAK1 (human) (UniProt O60285)
PAK6 (human) = PAK6 (human) (UniProt Q9NQU5)
PHKG1 (human) = PHKG1 (human) (UniProt Q16816)
PIM1 (human) = PIM1 (human) (UniProt P11309)
PRKACB (human) = PRKACB (human) (UniProt P22694)
PRKCE (human) = PRKCE (human) (UniProt Q02156)
PRKX (human) = PRKX (human) (UniProt P51817)
Chain of PRKX (human) (P51817 whole entry, looked up): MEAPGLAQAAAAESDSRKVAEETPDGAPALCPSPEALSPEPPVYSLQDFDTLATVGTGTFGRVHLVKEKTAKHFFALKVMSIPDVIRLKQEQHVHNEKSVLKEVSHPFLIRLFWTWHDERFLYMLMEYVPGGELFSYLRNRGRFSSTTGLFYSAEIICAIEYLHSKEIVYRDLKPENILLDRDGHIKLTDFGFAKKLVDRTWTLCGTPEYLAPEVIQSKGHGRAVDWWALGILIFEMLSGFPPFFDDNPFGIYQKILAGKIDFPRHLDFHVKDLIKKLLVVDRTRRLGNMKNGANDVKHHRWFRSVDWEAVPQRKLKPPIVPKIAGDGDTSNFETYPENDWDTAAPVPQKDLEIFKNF

RIOK1 (human) = RIOK1 (human) (UniProt Q9BRS2)
SRC (human) = SRC (human) (UniProt P12931)
SRPK3 (human) = SRPK3 (human) (UniProt Q9UPE1)
STK24 (human) = STK24 (human) (UniProt Q9Y6E0)
STK25 (human) = STK25 (human) (UniProt O00506)
TAOK3 (human) = TAOK3 (human) (UniProt Q9H2K8)
TNK1 (human) = TNK1 (human) (UniProt Q13470)
TNNI3K (human) = TNNI3K (human) (UniProt Q59H18)
Chain of TNNI3K (human) (Q59H18 whole entry, looked up): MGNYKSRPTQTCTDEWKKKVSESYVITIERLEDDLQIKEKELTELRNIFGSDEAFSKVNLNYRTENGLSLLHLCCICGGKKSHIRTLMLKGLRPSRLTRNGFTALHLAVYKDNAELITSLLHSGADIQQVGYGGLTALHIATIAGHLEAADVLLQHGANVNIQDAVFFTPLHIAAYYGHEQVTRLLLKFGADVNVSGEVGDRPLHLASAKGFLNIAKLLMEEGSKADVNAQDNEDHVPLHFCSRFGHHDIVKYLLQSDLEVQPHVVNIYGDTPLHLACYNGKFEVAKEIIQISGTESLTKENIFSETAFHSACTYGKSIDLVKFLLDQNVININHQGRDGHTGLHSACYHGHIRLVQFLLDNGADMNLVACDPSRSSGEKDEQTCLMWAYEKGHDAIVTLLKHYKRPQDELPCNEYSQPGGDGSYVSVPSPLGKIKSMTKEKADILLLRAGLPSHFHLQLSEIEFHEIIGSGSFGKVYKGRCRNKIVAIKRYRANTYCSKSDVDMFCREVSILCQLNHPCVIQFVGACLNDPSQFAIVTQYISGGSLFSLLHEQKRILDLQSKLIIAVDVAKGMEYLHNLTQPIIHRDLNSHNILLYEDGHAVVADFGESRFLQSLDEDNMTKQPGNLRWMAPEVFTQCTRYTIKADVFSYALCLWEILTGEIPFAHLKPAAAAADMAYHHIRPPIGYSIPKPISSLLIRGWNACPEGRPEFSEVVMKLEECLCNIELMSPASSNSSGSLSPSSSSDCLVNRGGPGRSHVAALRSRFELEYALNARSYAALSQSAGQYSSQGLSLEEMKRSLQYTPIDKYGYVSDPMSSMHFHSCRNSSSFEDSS

[2] = target: TYK2 JH1 catalytic (human) (UniProt P29597)
ULK1 (human) = ULK1 (human) (UniProt O75385)

Chain of AKT3 (human) (Q9Y243 whole entry, looked up): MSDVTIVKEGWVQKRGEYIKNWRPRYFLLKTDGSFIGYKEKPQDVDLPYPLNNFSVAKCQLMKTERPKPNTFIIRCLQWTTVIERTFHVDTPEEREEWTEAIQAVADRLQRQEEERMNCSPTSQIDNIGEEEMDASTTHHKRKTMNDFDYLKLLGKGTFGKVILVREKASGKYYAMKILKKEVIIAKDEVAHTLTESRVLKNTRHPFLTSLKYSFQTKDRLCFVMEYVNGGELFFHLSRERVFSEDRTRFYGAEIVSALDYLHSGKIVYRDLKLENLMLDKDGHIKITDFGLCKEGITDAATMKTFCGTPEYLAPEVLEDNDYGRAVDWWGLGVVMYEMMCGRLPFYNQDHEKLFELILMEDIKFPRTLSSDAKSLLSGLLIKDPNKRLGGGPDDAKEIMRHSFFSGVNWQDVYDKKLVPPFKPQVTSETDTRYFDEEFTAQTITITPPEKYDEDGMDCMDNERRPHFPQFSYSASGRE
Chain of CDK3 (human) (Q00526 whole entry, looked up): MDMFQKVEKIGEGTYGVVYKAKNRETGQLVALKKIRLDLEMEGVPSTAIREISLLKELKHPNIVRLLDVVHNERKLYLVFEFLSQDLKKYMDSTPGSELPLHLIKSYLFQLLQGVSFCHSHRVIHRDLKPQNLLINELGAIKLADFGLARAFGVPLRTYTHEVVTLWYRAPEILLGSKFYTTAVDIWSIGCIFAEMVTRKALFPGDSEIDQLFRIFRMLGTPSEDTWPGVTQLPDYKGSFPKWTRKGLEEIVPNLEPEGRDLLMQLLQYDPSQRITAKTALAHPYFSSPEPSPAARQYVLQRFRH

Compound	kinase still bound, per cent of control (ACVRL1 (human)) [%]	kinase still bound, per cent of control (AKT3 (human)) [%]	kinase still bound, per cent of control (CDC42BPA (human)) [%]	kinase still bound, per cent of control (CDK3 (human)) [%]	kinase still bound, per cent of control (CHEK2 (human)) [%]	kinase still bound, per cent of control (CSNK1E (human)) [%]	kinase still bound, per cent of control (CaMK1 (human)) [%]	kinase still bound, per cent of control (DAPK2 (human)) [%]	kinase still bound, per cent of control (DAPK3 (human)) [%]	kinase still bound, per cent of control (DYRK1B (human)) [%]	kinase still bound, per cent of control (EPHA7 (human)) [%]	kinase still bound, per cent of control (FYN (human)) [%]	kinase still bound, per cent of control (GAK (human)) [%]	kinase still bound, per cent of control [1] [%]	kinase still bound, per cent of control (LATS2 (human)) [%]	kinase still bound, per cent of control (MAP3K10 (human)) [%]	kinase still bound, per cent of control (MAPK3 (human)) [%]	kinase still bound, per cent of control (MAPKAPK5 (human)) [%]	kinase still bound, per cent of control (MARK1 (human)) [%]	kinase still bound, per cent of control (MELK (human)) [%]	also measured
COc1cc(C(=O)NC2CCN(C)CC2)ccc1Nc1ncc2c(n1)N(C1CCCC1)CCC(=O)N2C(C)C	100	100	100	100	100	100	100	100	100	100	100	100	100	100	100	100	100	100	100	100	kinase still bound, per cent of control (MKNK1 (human)): 100%; kinase still bound, per cent of control (MYLK (human)): 100%; kinase still bound, per cent of control (MYO3B (human)): 100%; kinase still bound, per cent of control (NUAK1 (human)): 100%; kinase still bound, per cent of control (PAK6 (human)): 100%; kinase still bound, per cent of control (PHKG1 (human)): 100%; kinase still bound, per cent of control (PIM1 (human)): 100%; kinase still bound, per cent of control (PRKACB (human)): 100%; kinase still bound, per cent of control (PRKCE (human)): 100%; kinase still bound, per cent of control (PRKX (human)): 100%; kinase still bound, per cent of control (RIOK1 (human)): 100%; kinase still bound, per cent of control (SRC (human)): 100%; kinase still bound, per cent of control (SRPK3 (human)): 100%; kinase still bound, per cent of control (STK24 (human)): 100%; kinase still bound, per cent of control (STK25 (human)): 100%; kinase still bound, per cent of control (TAOK3 (human)): 100%; kinase still bound, per cent of control (TNK1 (human)): 100%; kinase still bound, per cent of control (TNNI3K (human)): 100%; kinase still bound, per cent of control [2]: 100%; kinase still bound, per cent of control (ULK1 (human)): 100%
C=CC(=O)Nc1cc(NC(=O)c2ccc(C)c(NC(=O)c3ccno3)c2)cc(C(F)(F)F)c1	100	100	100	97	96	100	88	97	96	95	77	73	100	74	88	100	97	83	100	100	kinase still bound, per cent of control (MKNK1 (human)): 100%; kinase still bound, per cent of control (MYLK (human)): 100%; kinase still bound, per cent of control (MYO3B (human)): 100%; kinase still bound, per cent of control (NUAK1 (human)): 100%; kinase still bound, per cent of control (PAK6 (human)): 100%; kinase still bound, per cent of control (PHKG1 (human)): 92%; kinase still bound, per cent of control (PIM1 (human)): 100%; kinase still bound, per cent of control (PRKACB (human)): 100%; kinase still bound, per cent of control (PRKCE (human)): 100%; kinase still bound, per cent of control (PRKX (human)): 84%; kinase still bound, per cent of control (RIOK1 (human)): 100%; kinase still bound, per cent of control (SRC (human)): 49%; kinase still bound, per cent of control (SRPK3 (human)): 100%; kinase still bound, per cent of control (STK24 (human)): 100%; kinase still bound, per cent of control (STK25 (human)): 100%; kinase still bound, per cent of control (TAOK3 (human)): 77%; kinase still bound, per cent of control (TNK1 (human)): 85%; kinase still bound, per cent of control (TNNI3K (human)): 54%; kinase still bound, per cent of control [2]: 98%; kinase still bound, per cent of control (ULK1 (human)): 100%
